# Reference: patent US7511119B2, “PRAME peptide analogues” (MannKind Corporation, priority 2005, dated 2009)
# Ends that are not written are not given here.
# System: T cell lines against natural epitope SSX-241-49
# Assay: Cross-reactivity and functional avidity: IFN-gamma production by T cell lines raised against natural SSX-2 41-49;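 further: analogs presented ex vivo by competent APCs to T cells specific for the non-mutated epitope, scored by lowest activating concentration, peak cytokine effect and concentration at that peak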
# Format: cell-based, HHD transgenic mice
# Conditions: T cells raised to native peptide tested on analogs; footnote * and unit not given
row,Molecule,Cross-reactivity and fct avidity (native to analogs)*
1,"CCC[C@H](NC(=O)[C@H](Cc1ccc(O)cc1)NC(=O)[C@H](Cc1ccccc1)NC(=O)[C@@H](NC(=O)[C@H](CCCCN)NC(=O)[C@H](CCC(=O)O)NC(=O)[C@H](CO)NC(=O)[C@@H](NC(=O)[C@@H](N)Cc1ccccc1)C(C)C)[C@@H](C)CC)C(=O)O [SSX2 41-49 (K41F, A42V, V49Nva)]",0.1
2,"FVSEKMFYV [SSX2 41-49 (K41F, A42V, I46M)]",>10
3,KVSEKIFYV [SSX2 41-49-NH2 (A42V)],10
4,"CCCC[C@H](NC(=O)[C@@H](N)CCCCN)C(=O)N[C@@H](CO)C(=O)N[C@@H](CCC(=O)O)C(=O)N[C@@H](CCCCN)C(=O)N[C@H](C(=O)N[C@@H](Cc1ccccc1)C(=O)N[C@@H](Cc1ccc(O)cc1)C(=O)N[C@H](C(=O)O)C(C)C)[C@@H](C)CC [SSX2 41-49 (A42(Nle)), KNleSEKIFYV]",0.1
5,"CCCC[C@H](NC(=O)[C@H](Cc1ccc(O)cc1)NC(=O)[C@H](Cc1ccccc1)NC(=O)[C@@H](NC(=O)[C@H](CCCCN)NC(=O)[C@H](CCC(=O)O)NC(=O)[C@H](CO)NC(=O)[C@@H](NC(=O)[C@@H](N)Cc1ccccc1)C(C)C)[C@@H](C)CC)C(=O)O [SSX2 41-49 (K41F, A42V, V49Nle)]",>10
6,"CC[C@H](C)[C@H](NC(=O)[C@H](CCCCN)NC(=O)[C@H](CCC(=O)O)NC(=O)[C@H](CO)NC(=O)C(C)(C)NC(=O)[C@@H](N)CCCCN)C(=O)N[C@@H](Cc1ccccc1)C(=O)N[C@@H](Cc1ccc(O)cc1)C(=O)N[C@H](C(=O)O)C(C)C [SSX2 41-49 (A42(Aib)), KAibSEKIFYV]",3
7,"CC[C@H](C)[C@H](NC(=O)[C@H](CCCCN)NC(=O)[C@H](CCC(=O)O)NC(=O)[C@H](CO)NC(=O)[C@@H](NC(=O)[C@@H](N)Cc1ccccc1)C(C)C)C(=O)N[C@@H](Cc1ccccc1)C(=O)N[C@@H](Cc1ccc(O)cc1)C(=O)N[C@@H](C)C(=O)O [SSX2 41-49 (K41F, A42V, V49A)]",1
8,"CC[C@H](C)[C@H](NC(=O)[C@H](CCCCN)NC(=O)[C@H](CCC(=O)O)NC(=O)[C@H](CO)NC(=O)[C@H](Cc1ccc2ccccc2c1)NC(=O)[C@@H](N)CCCCN)C(=O)N[C@@H](Cc1ccccc1)C(=O)N[C@@H](Cc1ccc(O)cc1)C(=O)N[C@H](C(=O)O)C(C)C [SSX2 41-49 (A42(Nal-2)), KNal-2SEKIFYV]",3
9,"CC[C@H](C)[C@H](NC(=O)[C@H](CCCCN)NC(=O)[C@H](CCC(=O)O)NC(=O)[C@H](CO)NC(=O)[C@@H](NC(=O)[C@@H](N)Cc1ccccc1)C(C)C)C(=O)N[C@@H](Cc1ccccc1)C(=O)N[C@@H](Cc1ccc(O)cc1)C(=O)N(C)[C@H](C(=O)O)C(C)C [SSX2 41-49 (K41F, A42V, V49MeVal)]",10
10,KNal-1SEKIFYV [SSX2 41-49 (A42(Nal-1))],>10
11,"CC[C@H](C)[C@H](NC(=O)[C@H](CCCCN)NC(=O)[C@H](CO)NC(=O)[C@H](CO)NC(=O)[C@@H](NC(=O)[C@@H](N)Cc1ccccc1)C(C)C)C(=O)N[C@@H](Cc1ccccc1)C(=O)N[C@@H](Cc1ccc(O)cc1)C(=O)N[C@H](C(=O)O)C(C)C [SSX2 41-49 (K41F, A42V, E44S)]",>10
12,"CC[C@H](C)[C@H](NC(=O)[C@H](CCCCN)NC(=O)[C@@H](NC(=O)[C@H](CO)NC(=O)[C@@H](NC(=O)[C@@H](N)Cc1ccccc1)C(C)C)[C@@H](C)O)C(=O)N[C@@H](Cc1ccccc1)C(=O)N[C@@H](Cc1ccc(O)cc1)C(=O)N[C@H](C(=O)O)C(C)C [SSX2 41-49 (K41F, A42V, E44T)]",>10
13,"CC[C@H](NC(=O)[C@H](Cc1ccc(O)cc1)NC(=O)[C@H](Cc1ccccc1)NC(=O)[C@@H](NC(=O)[C@H](CCCCN)NC(=O)[C@H](CCC(=O)O)NC(=O)[C@H](CO)NC(=O)[C@@H](NC(=O)[C@@H](N)Cc1ccccc1)C(C)C)[C@@H](C)CC)C(=O)O [SSX2 41-49 (K41F, A42V, V49Abu)]",1
